# Assay results as given in patent publication US9382222B2, “Benzyl sulfonamide derivatives as RORc modulators” (Genentech, Inc., priority 2012, dated 2016).
# Biological target: T1, RORc ligand binding domain (Homo sapiens, UniProt P51449)
# T1 construct: host or cells: E. coli
# T1 sequence (P51449 269-508 limits assumed): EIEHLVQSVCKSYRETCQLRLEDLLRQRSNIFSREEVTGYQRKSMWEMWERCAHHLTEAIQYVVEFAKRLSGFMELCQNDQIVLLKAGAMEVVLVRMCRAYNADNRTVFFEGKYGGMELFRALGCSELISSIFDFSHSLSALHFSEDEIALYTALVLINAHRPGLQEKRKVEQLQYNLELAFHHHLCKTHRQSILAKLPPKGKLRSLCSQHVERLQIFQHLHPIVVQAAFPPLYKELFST
# Experiment: In Vitro RORc Ligand Binding Assay
# Details: displacement of 25-[3H]hydroxycholesterol (6 nM), 0.6 ug/mL RORc receptor, 3 h at 25° C.
# Protocol: In Vitro RORc Ligand Binding Assay This assay was used to determine a compound's potency in inhibiting activity of RORc by determining, Kiapp, IC50, or percent inhibition values. […] On day of the assay, 100 uL of 0.05% CHAPS (in deionized H2O) was added to all wells of the GFB Unifilter plate and allowed soak for 1 h. A wash buffer of 50 mM HEPES (pH 7.4), 150 mM NaCl, and 5 mM MgCl2 was prepared to wash the filter plate. To prepare an assay buffer, BSA was added to the wash buffer to reach 0.01% and DTT was added to reach 1 mM. […] The 20× compound stocks were diluted in DMSO with Assay Buffer 4-fold to reach 5× the final test concentration in 25% DMSO (10 uL compound+30 uL Assay Buffer). Solutions were mixed by aspiration several times with a pipette set on 50 uL volume. For the assay, 10 uL of 5× compound stock solutions in 25% DMSO were added to the assay plate in duplicate. For two point screening, 10 mM stock compound solutions were diluted in DMSO to obtain 200 uM (20× the high test concentration) and then diluted 10-fold further to reach 20 uM (20× the low test concentration). The 20× stocks were diluted 4-fold with Assay Buffer (10 uL compound+30 uL Assay Buffer) to reach 5× the test concentrations (50 uM and 5 uM) and 10 uL were added to two assay plates for the duplicate wells. […] Add 20 uL to all wells to reach 6 nM final concentration in the assay. […] Stock receptor solution was diluted in assay buffer to obtain 1.5 ug/mL in Assay Buffer. 20 uL was added to all wells. For No Receptor samples, 20 uL Assay Buffer was substituted for receptor solution. […] Following addition to the wells, the plates were incubated 3 h at 25° C. Using a Packard Filtermate Harvester, the filter plate were washed 4 times following transfer of the incubated samples. Plates were dry-filtered completely (2 h at 50° C. or overnight at room temperature). 50 uL Microscint 0 was added to all wells and read on Topcount protocol Inverted. […] For NSB wells, 1 uM 25-hydroxycholesterol was also present.
row,IC50,SMILES
1,771 nM,"CC(C)CN(c1cccc(Cl)c1)S(=O)(=O)c1ccc(N2CCC(O)CC2)cc1 [Compound 15, N-(3-Chloro-phenyl)-4-(4-hydroxy-piperidin-1-yl)-N-isobutyl-benzenesulfonamide]"
2,138 nM,"CC(=O)N1CCN(c2ccc(S(=O)(=O)N(CC(C)C)c3cccc(Cl)c3)cc2)CC1 [Compound 17, 4-(4-Acetyl-piperazin-1-yl)-N-(3-chloro-phenyl)-N-isobutyl-benzenesulfonamide]"
3,126 nM,"CC(C)CN(c1cccc(Cl)c1)S(=O)(=O)c1ccc(N2CCN(S(C)(=O)=O)CC2)cc1 [Compound 18, N-(3-Chloro-phenyl)-N-isobutyl-4-(4-methanesulfonyl-piperazin-1-yl)-benzenesulfonamide]"
4,62 nM,"CC(C)CN(c1cccc(Cl)c1)S(=O)(=O)c1ccc(N2CCN(S(=O)(=O)N(C)C)CC2)cc1 [Compound 19, 4-{4-[(3-Chloro-phenyl)-isobutyl-sulfamoyl]-phenyl}-piperazine-1-sulfonic acid dimethylamide]"
5,99 nM,"CC(=O)N1CCN(c2ccc(S(=O)(=O)N(CC(C)C)c3ccccc3Cl)cc2)CC1 [Compound 21, 4-(4-Acetyl-piperazin-1-yl)-N-(2-chloro-phenyl)-N-isobutyl-benzenesulfonamide]"
6,87 nM,"CC(C)CN(c1ccccc1Cl)S(=O)(=O)c1ccc(N2CCN(S(C)(=O)=O)CC2)cc1 [Compound 22, N-(2-Chloro-phenyl)-N-isobutyl-4-(4-methanesulfonyl-piperazin-1-yl)-benzenesulfonamide]"
7,169 nM,"CC(C)CN(c1cccc(Cl)c1)S(=O)(=O)c1ccc(N2CCC(NS(C)(=O)=O)CC2)cc1 [Compound 23, N-(3-Chloro-phenyl)-N-isobutyl-4-(4-methanesulfonylamino-piperidin-1-yl)-benzenesulfonamide]"
8,414 nM,"CC(C)CN(c1cccc(Cl)c1)S(=O)(=O)c1cccc(N2CCN(S(C)(=O)=O)CC2)c1 [Compound 26, N-(3-Chloro-phenyl)-N-isobutyl-3-(4-methanesulfonyl-piperazin-1-yl)-benzenesulfonamide]"
9,1600 nM,"CC(=O)N1CCN(c2ccc(S(=O)(=O)N(c3cccc(Cl)c3)C(C)C)cc2)CC1 [Compound 28, 4-(4-Acetyl-piperazin-1-yl)-N-(3-chloro-phenyl)-N-isopropyl-benzenesulfonamide]"
10,36 nM,"CC(C)CN(c1cccc(Cl)c1)S(=O)(=O)c1ccc(N2CCN(S(C)(=O)=O)CC2)c(F)c1 [Compound 29, N-(3-Chloro-phenyl)-3-fluoro-N-isobutyl-4-(4-methanesulfonyl-piperazin-1-yl)-benzenesulfonamide]"
11,149 nM,"CC(=O)N1CCN(c2ccc(S(=O)(=O)N(c3cccc(Cl)c3)C3CCC3)cc2)CC1 [Compound 30, 4-(4-Acetyl-piperazin-1-yl)-N-(3-chloro-phenyl)-N-cyclobutyl-benzenesulfonamide]"
12,258 nM,"CC(=O)N1CCC(Nc2ccc(S(=O)(=O)N(CC(C)C)c3cccc(Cl)c3)cc2)CC1 [Compound 31, 4-(1-Acetyl-piperidin-4-ylamino)-N-(3-chloro-phenyl)-N-isobutyl-benzenesulfonamide]"
13,198 nM,"CC(=O)N1CCC(Oc2ccc(S(=O)(=O)N(CC(C)C)c3cccc(Cl)c3)cc2)CC1 [Compound 33, 4-(1-Acetyl-piperidin-4-yloxy)-N-(3-chloro-phenyl)-N-isobutyl-benzenesulfonamide]"
14,108 nM,"CC(C)CN(c1cccc(Cl)c1)S(=O)(=O)c1ccc(OC2CCN(C(N)=O)CC2)cc1 [Compound 35, 4-{4-[(3-Chloro-phenyl)-isobutyl-sulfamoyl]-phenoxy}-piperidine-1-carboxylic acid amide]"
15,66 nM,"CC(C)CN(c1cccc(Cl)c1)S(=O)(=O)c1ccc(NC2CCN(C(N)=O)CC2)cc1 [Compound 36, 4-{4-[(3-Chloro-phenyl)-isobutyl-sulfamoyl]-phenylamino}-piperidine-1-carboxylic acid amide]"
16,305 nM,"CC(=O)N1CCN(c2ccc(S(=O)(=O)N(CC(F)(F)F)c3cccc(Cl)c3)cc2)CC1 [Compound 37, 4-(4-Acetyl-piperazin-1-yl)-N-(3-chloro-phenyl)-N-(2,2,2-trifluoro-ethyl)-benzenesulfonamide]"
17,1400 nM,"CC(=O)N1CCN(c2ccc(S(=O)(=O)N(CC(F)F)c3cccc(Cl)c3)cc2)CC1 [Compound 38, 4-(4-Acetyl-piperazin-1-yl)-N-(3-chloro-phenyl)-N-(2,2-difluoro-ethyl)-benzenesulfonamide]"

# The remaining lines, values behind:
row,SMILES,IC50
1,"CC(C)CN(Cc1ccc(F)cc1)S(=O)(=O)c1ccc(NC2CCN(S(C)(=O)=O)CC2)cc1 [Compound 2, N-(4-Fluoro-benzyl)-N-isobutyl-4-(1-methanesulfonyl-piperidin-4-ylamino)-benzenesulfonamide]",8 nM
2,"CC(C)CN(c1ccc(F)cc1)S(=O)(=O)c1ccc(OC2CCN(S(C)(=O)=O)CC2)cc1 [Compound 3, N-(4-Fluoro-phenyl)-N-isobutyl-4-(1-methanesulfonyl-piperidin-4-yloxy)-benzenesulfonamide]",16 nM
3,"CS(=O)(=O)N1CCC(Oc2ccc(S(=O)(=O)N(c3cccc(F)c3)C3CCC3)cc2)CC1 [Compound 4, N-Cyclobutyl-N-(3-fluoro-phenyl)-4-(1-methanesulfonyl-piperidin-4-yloxy)-benzenesulfonamide]",29 nM
4,"CC(C)CN(c1ccccc1C(F)(F)F)S(=O)(=O)c1ccc(NC(=O)C2CCN(S(C)(=O)=O)CC2)cc1 [Compound 11, 1-Methanesulfonyl-piperidine-4-carboxylic acid {4-[isobutyl-(2-trifluoromethyl-phenyl)-sulfamoyl]-phenyl}-amide]",13 nM
5,"CC(C)CN(c1ccc(F)cc1)S(=O)(=O)c1ccc(C(=O)NC2CCN(S(C)(=O)=O)CC2)cc1 [Compound 12, 4-[(4-Fluoro-phenyl)-isobutyl-sulfamoyl]-N-(1-methanesulfonyl-piperidin-4-yl)-benzamide]",6100 nM
6,"CC(C)CN(c1ccccc1Cl)S(=O)(=O)c1ccc(N2CCC(O)CC2)cc1 [Compound 16, N-(2-Chloro-phenyl)-4-(4-hydroxy-piperidin-1-yl)-N-isobutyl-benzenesulfonamide]",1300 nM
7,"CC(C)CN(c1ccccc1Cl)S(=O)(=O)c1ccc(N2CCN(S(=O)(=O)N(C)C)CC2)cc1 [Compound 20, 4-{4-[(2-Chloro-phenyl)-isobutyl-sulfamoyl]-phenyl}-piperazine-1-sulfonic acid dimethylamide]",81 nM
8,"CC(C)CN(c1ccccc1Cl)S(=O)(=O)c1ccc(N2CCC(NS(C)(=O)=O)CC2)cc1 [Compound 24, N-(2-Chloro-phenyl)-N-isobutyl-4-(4-methanesulfonylamino-piperidin-1-yl)-benzenesulfonamide]",128 nM
9,"CC(C)CN(c1ccccc1Cl)S(=O)(=O)c1cccc(N2CCN(S(C)(=O)=O)CC2)c1 [Compound 25, N-(2-Chloro-phenyl)-N-isobutyl-3-(4-methanesulfonyl-piperazin-1-yl)-benzenesulfonamide]",528 nM
10,"CC(C)CN(c1cccc(Cl)c1)S(=O)(=O)c1ccc(N2CCN(S(C)(=O)=O)CC2)cc1F [Compound 27, N-(3-Chloro-phenyl)-2-fluoro-N-isobutyl-4-(4-methanesulfonyl-piperazin-1-yl)-benzenesulfonamide]",33 nM
11,"CC(C)CN(c1cccc(Cl)c1)S(=O)(=O)c1ccc(NC2CCN(S(C)(=O)=O)CC2)cc1 [Compound 32, N-(3-Chloro-phenyl)-N-isobutyl-4-(1-methanesulfonyl-piperidin-4-ylamino)-benzenesulfonamide]",7 nM
12,"CC(C)CN(c1cccc(Cl)c1)S(=O)(=O)c1ccc(OC2CCN(S(C)(=O)=O)CC2)cc1 [Compound 34, N-(3-Chloro-phenyl)-N-isobutyl-4-(1-methanesulfonyl-piperidin-4-yloxy)-benzenesulfonamide]",8 nM
13,"CC(C)CN(c1cccc(Cl)c1)S(=O)(=O)c1ccc(OC2CCN(S(=O)(=O)N(C)C)CC2)cc1 [Compound 39, 4-{4-[(3-Chloro-phenyl)-isobutyl-sulfamoyl]-phenoxy}-piperidine-1-sulfonic acid dimethylamide]",191 nM
14,"CC(C)CN(c1cccc(Cl)c1)S(=O)(=O)c1cccc(NC2CCN(S(C)(=O)=O)CC2)c1 [Compound 40, N-(3-Chloro-phenyl)-N-isobutyl-3-(1-methanesulfonyl-piperidin-4-ylamino)-benzenesulfonamide]",480 nM
